Legend:
PI3K β = target: T1, PI3K β (Homo sapiens, UniProt P42338); assay: In vitro PI3 kinase enzyme assay (beta), ATP loss, bioluminescence; format: biochemical; settings: read-out: PI3Kβ ATP loss IC50;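 note: purified p110β/p85 heterodimer with PtdIns(4,5)P2 as acceptor, incubated at room temperature, leftover ATP read by luminescence, inhibition scaled to compound-free wells with and without enzyme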
T1 construct: Full length p110 subunits of PI3K α, β and δ, N-terminally labeled with polyHis tag; polyHis (N); made in house; host or cells: Sf9 insect cells (baculovirus)
T1 sequence (P42338 whole entry): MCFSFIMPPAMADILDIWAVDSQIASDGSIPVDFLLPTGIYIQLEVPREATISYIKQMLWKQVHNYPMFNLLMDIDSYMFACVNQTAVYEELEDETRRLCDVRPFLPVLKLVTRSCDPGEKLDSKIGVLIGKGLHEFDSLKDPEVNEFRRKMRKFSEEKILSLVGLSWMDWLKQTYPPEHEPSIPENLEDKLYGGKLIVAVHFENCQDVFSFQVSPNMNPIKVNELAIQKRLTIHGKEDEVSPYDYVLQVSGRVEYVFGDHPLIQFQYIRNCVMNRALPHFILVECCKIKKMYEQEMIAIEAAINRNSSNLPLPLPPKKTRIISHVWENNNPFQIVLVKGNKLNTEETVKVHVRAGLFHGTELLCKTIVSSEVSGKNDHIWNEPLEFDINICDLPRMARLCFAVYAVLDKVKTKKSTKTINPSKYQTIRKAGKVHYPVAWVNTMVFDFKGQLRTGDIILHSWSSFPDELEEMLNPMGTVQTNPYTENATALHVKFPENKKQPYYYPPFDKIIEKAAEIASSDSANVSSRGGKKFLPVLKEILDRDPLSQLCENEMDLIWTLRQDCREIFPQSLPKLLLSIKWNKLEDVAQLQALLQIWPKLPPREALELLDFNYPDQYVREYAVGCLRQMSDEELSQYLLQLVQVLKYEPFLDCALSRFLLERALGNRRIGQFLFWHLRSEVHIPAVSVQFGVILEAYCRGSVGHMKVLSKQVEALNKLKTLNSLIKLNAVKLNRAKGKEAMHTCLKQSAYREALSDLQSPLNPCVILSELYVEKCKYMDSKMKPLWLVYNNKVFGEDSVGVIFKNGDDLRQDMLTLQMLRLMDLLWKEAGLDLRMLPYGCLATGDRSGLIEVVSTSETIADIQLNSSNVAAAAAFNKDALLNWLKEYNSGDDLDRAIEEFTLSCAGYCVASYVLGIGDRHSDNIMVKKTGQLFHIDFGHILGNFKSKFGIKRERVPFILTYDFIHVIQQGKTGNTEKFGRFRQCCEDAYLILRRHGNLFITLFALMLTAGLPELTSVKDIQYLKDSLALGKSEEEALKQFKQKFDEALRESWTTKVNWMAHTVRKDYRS
T1 sequence (P27986 whole entry partner): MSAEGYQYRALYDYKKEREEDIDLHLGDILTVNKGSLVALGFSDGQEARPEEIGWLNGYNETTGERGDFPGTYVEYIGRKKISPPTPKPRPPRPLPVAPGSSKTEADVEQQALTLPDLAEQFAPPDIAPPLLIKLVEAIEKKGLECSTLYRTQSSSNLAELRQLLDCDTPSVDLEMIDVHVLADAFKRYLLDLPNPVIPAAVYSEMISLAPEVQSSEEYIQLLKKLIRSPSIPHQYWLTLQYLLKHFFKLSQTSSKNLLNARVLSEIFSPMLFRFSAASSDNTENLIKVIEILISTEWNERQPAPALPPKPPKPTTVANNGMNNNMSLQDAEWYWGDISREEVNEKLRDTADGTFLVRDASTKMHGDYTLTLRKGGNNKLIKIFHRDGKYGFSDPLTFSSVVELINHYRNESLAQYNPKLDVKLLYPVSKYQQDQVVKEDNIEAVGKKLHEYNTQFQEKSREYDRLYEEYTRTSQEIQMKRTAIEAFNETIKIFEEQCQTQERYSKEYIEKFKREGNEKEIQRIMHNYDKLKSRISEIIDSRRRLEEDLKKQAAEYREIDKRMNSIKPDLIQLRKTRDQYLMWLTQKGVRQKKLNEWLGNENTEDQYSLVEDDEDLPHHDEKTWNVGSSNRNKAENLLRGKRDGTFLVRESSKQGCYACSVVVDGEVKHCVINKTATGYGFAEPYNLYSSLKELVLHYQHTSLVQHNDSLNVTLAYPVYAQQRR

PI3K α = target: T2, PI3K α (Homo sapiens, UniProt P42336); assay: In vitro PI3 kinase enzyme assay (alpha), ATP loss, bioluminescence; format: biochemical; settings: read-out: PI3Kα ATP loss IC50;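 note: purified p110α/p85 heterodimer acting on PtdIns(4,5)P2 at room temperature, remaining ATP read by luminescence, inhibition scaled between compound-free wells with and without enzyme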
T2 construct: Full length p110 subunits of PI3K α, β and δ, N-terminally labeled with polyHis tag; polyHis (N); made in house; host or cells: Sf9 insect cells (baculovirus)
T2 sequence (P42336 whole entry, species assumed): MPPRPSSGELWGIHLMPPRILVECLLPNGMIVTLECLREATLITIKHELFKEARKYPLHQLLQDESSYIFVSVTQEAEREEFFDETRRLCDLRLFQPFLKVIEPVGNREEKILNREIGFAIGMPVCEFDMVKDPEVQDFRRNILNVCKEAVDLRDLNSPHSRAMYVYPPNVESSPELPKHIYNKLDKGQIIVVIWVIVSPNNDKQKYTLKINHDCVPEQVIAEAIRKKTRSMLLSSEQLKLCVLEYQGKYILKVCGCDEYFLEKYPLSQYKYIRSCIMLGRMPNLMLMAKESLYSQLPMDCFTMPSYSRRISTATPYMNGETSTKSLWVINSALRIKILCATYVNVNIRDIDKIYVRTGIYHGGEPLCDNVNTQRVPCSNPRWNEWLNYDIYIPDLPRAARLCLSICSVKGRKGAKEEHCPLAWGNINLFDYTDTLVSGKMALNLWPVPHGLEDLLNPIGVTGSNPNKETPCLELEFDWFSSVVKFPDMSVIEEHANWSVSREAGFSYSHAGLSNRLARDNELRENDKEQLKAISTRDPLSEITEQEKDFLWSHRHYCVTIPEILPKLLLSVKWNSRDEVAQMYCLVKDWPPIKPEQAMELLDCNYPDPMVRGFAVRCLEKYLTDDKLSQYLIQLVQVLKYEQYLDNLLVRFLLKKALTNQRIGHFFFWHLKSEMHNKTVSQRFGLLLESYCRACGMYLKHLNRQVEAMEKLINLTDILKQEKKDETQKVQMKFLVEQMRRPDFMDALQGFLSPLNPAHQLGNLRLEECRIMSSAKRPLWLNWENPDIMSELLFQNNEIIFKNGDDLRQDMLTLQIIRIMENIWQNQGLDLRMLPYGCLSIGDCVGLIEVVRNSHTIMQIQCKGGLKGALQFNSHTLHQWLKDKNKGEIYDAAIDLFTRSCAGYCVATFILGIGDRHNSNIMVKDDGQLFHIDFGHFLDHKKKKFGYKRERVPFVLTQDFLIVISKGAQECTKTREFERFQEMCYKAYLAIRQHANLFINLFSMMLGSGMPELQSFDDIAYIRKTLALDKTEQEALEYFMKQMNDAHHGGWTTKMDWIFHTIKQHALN
T2 sequence (P27986 whole entry partner, species assumed): as the sequence (P27986 whole entry partner) above

[1] = tested on: phosphorylation of Serine 473 in Akt, HCT 116 human colon carcinoma cells; assay: Cell-based phospho-AKT Ser473 assay (MSD sandwich immunoassay, IGF-1 stimulated); settings: Homo sapiens, HCT-116, HCT 116 cells; read-out: HCT 116 pAKT IC50
Protocol: This assay determines the ability of test compounds to inhibit the phosphorylation of […] in Akt using a MSD based sandwich immunoassay (Meso Scale Detection, catalogue # N411CAB-1). […] Prior to the assay cells were detached from the culture flask with trypsin, and re-suspended in complete media to give a final concentration of 1.6×10^5 cells per ml. Aliquots (100 μl) of the HCT116 cell suspension were seeded into each well of a 96 well tissue culture plate (Corning Incorporated COSTAR, catalogue#3595) to give a final density of 16,000 cells per well. Cells were then incubated overnight at 37° C. The following day the cells were treated with serially diluted test compounds and incubated for 2 hours at 37° C. […] As a maximum response control, wells contained 0.5% DMSO in place of test compound. The plates were mixed at 700 rpm for 2 min to ensure even distribution of the test compound and incubated for 2 hours at 37° C. Cells were then stimulated with insulin-like growth factor 1 (Sigma, product #13769) at final concentration of 100 ng/ml for 15 minutes at 37° C. The media was then removed and the cells treated with 80 μl cell-lysis buffer (MSD) containing a cocktail of protease and phosphatase inhibitors for one hour at 4° C. […] The detection antibody was removed and plates were then washed four times with 200 μl per well of Tris wash buffer. An aliquot of 150 μl of diluted MSD read buffer was then applied to each well, and the electrochemiluminescent signal was measured using a MSD SECTORTM plate reader. This instrument measures the intensity of emitted light to determine a quantitative measure of phosphorylated Akt in each well. The dose-response data obtained with each compound were analyzed and the IC50 inhibition of Akt phosphorylation at Ser473 calculated.

Compound: CC(=O)Nc1nc2ccc(-c3cnc(Cl)c(NS(=O)(=O)c4ccsc4)c3)cc2s1 [Example 187, N-(6-(6-chloro-5-(thiophene-4-sulfonamido)pyridin-3-yl)benzo[d]thiazol-2-yl)acetamide]
- IC50 (PI3K β): 42.1 nM
- IC50 (PI3K α): 21.1 nM
- IC50 [1]: 37.4 nM

Compound: CC(=O)Nc1nc2ccc(-c3cccc(NS(=O)(=O)c4ccccc4F)n3)cc2s1 [Example 73, N-(6-(6-(2-Fluorophenylsulfonamido)pyridin-2-yl)benzo[d]thiazol-2-yl)acetamide]
- IC50 (PI3K β): 149 nM
- IC50 (PI3K α): 60.6 nM
- IC50 [1]: 320 nM

Compound: COc1ccc(Sc2ncc(-c3ccc4nc(NC(C)=O)sc4c3)s2)cc1 [Example 62, N-(6-(2-(4-methoxyphenylthio)thiazol-5-yl)benzo[d]thiazol-2-yl)acetamide]
- IC50 (PI3K β): 5210 nM
- IC50 (PI3K α): 29.9 nM
- IC50 [1]: 2580 nM

Compound: CC(=O)Nc1nc2ccc(-c3cccc(S(=O)(=O)c4ccc(F)cc4)n3)cc2s1 [Example 66, N-(6-(6-(4-Fluorophenylsulfonyl)pyridin-2-yl)benzo[d]thiazol-2-yl)acetamide]
- IC50 (PI3K β): 5610 nM
- IC50 (PI3K α): 258 nM
- IC50 [1]: 2020 nM

Compound: CC(=O)Nc1nc2ccc(-c3ccnc(N(C)S(=O)(=O)c4ccc(C)cc4C)n3)cc2s1 [Example 212, N-(6-(2-(N,2,4-trimethylphenylsulfonamido)pyrimidin-4-yl)benzo[d]thiazol-2-yl)acetamide]
- IC50 (PI3K β): 60.3 nM
- IC50 (PI3K α): 72.2 nM
- IC50 [1]: 237 nM

Compound: CC(=O)Nc1nc2ccc(-c3cnc(Cl)c(NS(=O)(=O)c4ccc(Cl)s4)c3)cc2s1 [Example 193, N-(6-(6-chloro-5-(2-chlorothiophene-5-sulfonamido)pyridin-3-yl)benzo[d]thiazol-2-yl)acetamide]
- IC50 (PI3K β): 9.6 nM
- IC50 (PI3K α): 6.8 nM
- IC50 [1]: 16.8 nM

Compound: CC(=O)Nc1nc2ccc(-c3ccnc(N(C)S(=O)(=O)c4ccccc4)n3)cc2s1 [Example 91, N-(6-(2-(methyl(phenylsulfonyl)amino)-4-pyrimidinyl)-1,3-benzothiazol-2-yl)acetamide]
- IC50 (PI3K β): 237 nM
- IC50 (PI3K α): 181 nM
- IC50 [1]: 310 nM

Compound: CC(=O)Nc1nc2ccc(-c3cccc(N(C)S(=O)(=O)c4cccc(C)c4)n3)cc2s1 [Example 225, N-(6-(6-(N,3-dimethylphenylsulfonamido)pyridin-2-yl)benzo[d]thiazol-2-yl)acetamide]
- IC50 (PI3K β): 294 nM
- IC50 (PI3K α): 64.7 nM
- IC50 [1]: 244 nM

Compound: CC(=O)Nc1nc2ccc(-c3cncc(N(C)S(=O)(=O)c4ccc(Cl)c(Cl)c4)c3)cc2s1 [Example 221, N-(6-(5-(3,4-dichloro-N-methylphenylsulfonamido)pyridin-3-yl)benzo[d]thiazol-2-yl)acetamide]
- IC50 (PI3K β): 2100 nM
- IC50 (PI3K α): 79.2 nM
- IC50 [1]: 320 nM

Compound: CC(=O)Nc1nc2ccc(-c3cnc(Cl)c(NS(=O)(=O)c4ccc(C(C)O)cc4)c3)cc2s1 (stereo not drawn) [Example 256, N-(6-(6-chloro-5-(4-(1-hydroxyethyl)phenylsulfonamido)pyridin-3-yl)benzo[d]thiazol-2-yl)acetamide]
- IC50 (PI3K β): 7.3 nM
- IC50 (PI3K α): 5.2 nM
- IC50 [1]: 9.9 nM

Compound: CC(=O)Nc1nc2ccc(-c3ccnc(OCc4ccc5c(c4)OCO5)n3)cc2s1 [Example 40, N-(6-(2-(1,3-benzodioxol-5-ylmethoxy)-4-pyrimidinyl)-1,3-benzothiazol-2-yl)acetamide]
- IC50 (PI3K β): 25100 nM
- IC50 (PI3K α): 83.4 nM
- IC50 [1]: 1050 nM

Compound: CC(=O)Nc1nc2ccc(-c3cncc(F)c3)cc2s1 [Example 289, N-(6-(5-Fluoropyridin-3-yl)benzo[d]thiazol-2-yl)acetamide]
- IC50 (PI3K β): 3210 nM
- IC50 (PI3K α): 96.3 nM
- IC50 [1]: 450 nM

Compound: Nc1nc2ccc(-c3cnc(Cl)c(NS(=O)(=O)c4cccc(OC(F)F)c4)c3)cc2s1 [Example 307, N-(5-(2-amino-1,3-benzothiazol-6-yl)-2-chloro-3-pyridinyl)-3-(difluoromethoxy)benzenesulfonamide]
- IC50 (PI3K β): 17.3 nM
- IC50 (PI3K α): 6.7 nM
- IC50 [1]: 115 nM

Compound: CC(=O)Nc1nc2ccc(-c3cncc(NS(=O)(=O)c4ccc(C(F)(F)F)cc4)c3)cc2s1 [Example 196, N-(6-(5-(4-(trifluoromethyl)phenylsulfonamido)pyridin-3-yl)benzo[d]thiazol-2-yl)acetamide]
- IC50 (PI3K β): 15.7 nM
- IC50 (PI3K α): 6.7 nM
- IC50 [1]: 123 nM

Compound: CC(=O)Nc1nc2ccc(-c3cnc(C#N)c(N)c3)cc2s1 [Example 268, N-(6-(5-amino-6-cyanopyridin-3-yl)benzo[d]thiazol-2-yl)acetamide]
- IC50 (PI3K β): 17000 nM
- IC50 (PI3K α): 241 nM
- IC50 [1]: 842 nM

Compound: CC(=O)Nc1nc2ccc(-c3ccnc(Sc4cccc(C)c4)n3)cc2s1 [Example 35, N-(6-(2-((3-methylphenyl)sulfanyl)-4-pyrimidinyl)-1,3-benzothiazol-2-yl)acetamide]
- IC50 (PI3K β): 1060 nM
- IC50 (PI3K α): 57.6 nM
- IC50 [1]: 3580 nM

Compound: CC(=O)Nc1nc2ccc(-c3cnc(Cl)c(NS(=O)(=O)c4cc(F)cc(F)c4)c3)cc2s1 [Example 176, N-(6-(6-chloro-5-(3,5-difluorophenylsulfonamido)pyridin-3-yl)benzo[d]thiazol-2-yl)acetamide]
- IC50 (PI3K β): 12.4 nM
- IC50 (PI3K α): 10.3 nM
- IC50 [1]: 18.2 nM

Compound: CC(=O)Nc1nc2ccc(-c3cnc(Cl)c(N(C)C)c3)cc2s1 [Example 269, N-(6-(6-Chloro-5-(dimethylamino)pyridin-3-yl)benzo[d]thiazol-2-yl)acetamide]
- IC50 (PI3K β): 221 nM
- IC50 (PI3K α): 19.9 nM
- IC50 [1]: 56.7 nM

Compound: COc1ncc(-c2ccc3nc(NC(C)=O)sc3c2)cc1NC(C)C [Example 145, N-(6-(6-methoxy-5-((1-methylethyl)amino)-3-pyridinyl)-1,3-benzothiazol-2-yl)acetamide]
- IC50 (PI3K β): 424 nM
- IC50 (PI3K α): 114 nM
- IC50 [1]: 851 nM

Compound: CC(C)Nc1cc(-c2ccc3nc(NC(=O)C[C@@H]4CCCO4)sc3c2)cnc1Cl [Example 151, N-(6-(6-chloro-5-((1-methylethyl)amino)-3-pyridinyl)-1,3-benzothiazol-2-yl)-2-((2S)-tetrahydro-2-furanyl)acetamide]
- IC50 (PI3K β): 1620 nM
- IC50 (PI3K α): 230 nM
- IC50 [1]: > 5000 nM

Compound: CC(=O)Nc1nc2ccc(-c3ccnc(Sc4c(C)cccc4C)n3)cc2s1 [Example 129, N-(6-(2-((2,6-dimethylphenyl)sulfanyl)-4-pyrimidinyl)-1,3-benzothiazol-2-yl)acetamide]
- IC50 (PI3K β): 477 nM
- IC50 (PI3K α): 38.3 nM
- IC50 [1]: 978 nM

Compound: Cc1ccc(S(=O)(=O)Nc2nnc(-c3ccc4nc(NC(=O)OC(C)(C)C)sc4c3)o2)cc1 [Example 166, tert-Butyl 6-(5-(4-methylphenylsulfonamido)-1,3,4-oxadiazol-2-yl)benzo[d]thiazol-2-ylcarbamate]
- IC50 (PI3K β): 2200 nM
- IC50 (PI3K α): 336 nM
- IC50 [1]: 239 nM

Compound: CC(=O)Nc1nc2ccc(-c3cnc(C)c(NS(=O)(=O)c4ccccc4)c3)cc2s1 [Example 110, N-(6-(6-methyl-5-(phenylsulfonamido)pyridin-3-yl)benzo[d]thiazol-2-yl)acetamide]
- IC50 (PI3K β): 10.6 nM
- IC50 (PI3K α): 3.8 nM
- IC50 [1]: 31.4 nM

Compound: CC(=O)Nc1nc2ccc(-c3cnc(Cl)c(NS(=O)(=O)c4ccc(C(C)=O)cc4)c3)cc2s1 [Example 119, N-(6-(5-(((4-acetylphenyl)sulfonyl)amino)-6-chloro-3-pyridinyl)-1,3-benzothiazol-2-yl)acetamide]
- IC50 (PI3K β): 13.5 nM
- IC50 (PI3K α): 12.3 nM
- IC50 [1]: 34.5 nM
